# Results published in ChEMBL document CHEMBL4765227, “Hit to lead optimization of a series of N-[4-(1,3-benzothiazol-2-yl)phenyl]acetamides as monoacylglycerol lipase inhibitors with potential anticancer activity” (Eur J Med Chem, 2016).
# Columns and labels:
# Type in all cases: functional
# Details in all cases: read-out: GI
# Hs-578T = assay: Growth inhibition of human Hs-578T cells at 10 uM incubated for 48 hrs by sulforhodamine B assay relative to control
# MDA-MB-435 = assay: Growth inhibition of human MDA-MB-435 cells at 10 uM incubated for 48 hrs by sulforhodamine B assay relative to control
# UACC-62 = assay: Growth inhibition of human UACC-62 cells at 10 uM incubated for 48 hrs by sulforhodamine B assay relative to control
# HCC 2998 = assay: Growth inhibition of human HCC 2998 cells at 10 uM incubated for 48 hrs by sulforhodamine B assay relative to control
# SR = assay: Growth inhibition of human SR cells at 10 uM incubated for 48 hrs by sulforhodamine B assay relative to control
# K562 = assay: Growth inhibition of human K562 cells at 10 uM incubated for 48 hrs by sulforhodamine B assay relative to control
# SF-295 = assay: Growth inhibition of human SF-295 cells at 10 uM incubated for 48 hrs by sulforhodamine B assay relative to control
# SF-539 = assay: Growth inhibition of human SF-539 cells at 10 uM incubated for 48 hrs by sulforhodamine B assay relative to control
# UO-31 = assay: Growth inhibition of human UO-31 cells at 10 uM incubated for 48 hrs by sulforhodamine B assay relative to control
# SK-OV-3 = assay: Growth inhibition of human SK-OV-3 cells at 10 uM incubated for 48 hrs by sulforhodamine B assay relative to control
# DU-145 = assay: Growth inhibition of human DU-145 cells at 10 uM incubated for 48 hrs by sulforhodamine B assay relative to control
# RXF 393 = assay: Growth inhibition of human RXF 393 cells at 10 uM incubated for 48 hrs by sulforhodamine B assay relative to control
# BT-549 = assay: Growth inhibition of human BT-549 cells at 10 uM incubated for 48 hrs by sulforhodamine B assay relative to control
# U-251 = assay: Growth inhibition of human U-251 cells at 10 uM incubated for 48 hrs by sulforhodamine B assay relative to control
# SK-MEL-5 = assay: Growth inhibition of human SK-MEL-5 cells at 10 uM incubated for 48 hrs by sulforhodamine B assay relative to control
# HT-29 = assay: Growth inhibition of human HT-29 cells at 10 uM incubated for 48 hrs by sulforhodamine B assay relative to control
# MDA-MB-468 = assay: Growth inhibition of human MDA-MB-468 cells at 10 uM incubated for 48 hrs by sulforhodamine B assay relative to control
# MCF7 = assay: Growth inhibition of human MCF7 cells at 10 uM incubated for 48 hrs by sulforhodamine B assay relative to control
# T47D = assay: Growth inhibition of human T47D cells at 10 uM incubated for 48 hrs by sulforhodamine B assay relative to control
# NCI-H322M = assay: Growth inhibition of human NCI-H322M cells at 10 uM incubated for 48 hrs by sulforhodamine B assay relative to control
# RPMI-8226 = assay: Growth inhibition of human RPMI-8226 cells at 10 uM incubated for 48 hrs by sulforhodamine B assay relative to control
# SF-268 = assay: Growth inhibition of human SF-268 cells at 10 uM incubated for 48 hrs by sulforhodamine B assay relative to control
# PC-3 = assay: Growth inhibition of human PC-3 cells at 10 uM incubated for 48 hrs by sulforhodamine B assay relative to control
# A549 = assay: Growth inhibition of human A549/ATCC cells at 10 uM incubated for 48 hrs by sulforhodamine B assay relative to control
# NCI-H23 = assay: Growth inhibition of human NCI-H23 cells at 10 uM incubated for 48 hrs by sulforhodamine B assay relative to control
# HL-60(TB) = assay: Growth inhibition of human HL-60(TB) cells at 10 uM incubated for 48 hrs by sulforhodamine B assay relative to control
# OVCAR-8 = assay: Growth inhibition of human OVCAR-8 cells at 10 uM incubated for 48 hrs by sulforhodamine B assay relative to control
# ACHN = assay: Growth inhibition of human ACHN cells at 10 uM incubated for 48 hrs by sulforhodamine B assay relative to control
# NCI-H522 = assay: Growth inhibition of human NCI-H522 cells at 10 uM incubated for 48 hrs by sulforhodamine B assay relative to control
# UACC-257 = assay: Growth inhibition of human UACC-257 cells at 10 uM incubated for 48 hrs by sulforhodamine B assay relative to control
# OVCAR-5 = assay: Growth inhibition of human OVCAR-5 cells at 10 uM incubated for 48 hrs by sulforhodamine B assay relative to control
# NCI-H226 = assay: Growth inhibition of human NCI-H226 cells at 10 uM incubated for 48 hrs by sulforhodamine B assay relative to control
# SNB-19 = assay: Growth inhibition of human SNB-19 cells at 10 uM incubated for 48 hrs by sulforhodamine B assay relative to control
# OVCAR-3 = assay: Growth inhibition of human OVCAR-3 cells at 10 uM incubated for 48 hrs by sulforhodamine B assay relative to control
# Malme-3M = assay: Growth inhibition of human Malme-3M cells at 10 uM incubated for 48 hrs by sulforhodamine B assay relative to control
# 786-0 = assay: Growth inhibition of human 786-0 cells at 10 uM incubated for 48 hrs by sulforhodamine B assay relative to control
# M14 = assay: Growth inhibition of human M14 cells at 10 uM incubated for 48 hrs by sulforhodamine B assay relative to control
# SN12C = assay: Growth inhibition of human SN12C cells at 10 uM incubated for 48 hrs by sulforhodamine B assay relative to control
# TK-10 = assay: Growth inhibition of human TK-10 cells at 10 uM incubated for 48 hrs by sulforhodamine B assay relative to control
# MDA-MB-231 = assay: Growth inhibition of human MDA-MB-231 cells at 10 uM incubated for 48 hrs by sulforhodamine B assay relative to control
# MOLT-4 = assay: Growth inhibition of human MOLT-4 cells at 10 uM incubated for 48 hrs by sulforhodamine B assay relative to control
# OVCAR-4 = assay: Growth inhibition of human OVCAR-4 cells at 10 uM incubated for 48 hrs by sulforhodamine B assay relative to control
# KM12 = assay: Growth inhibition of human KM12 cells at 10 uM incubated for 48 hrs by sulforhodamine B assay relative to control
# IGROV-1 = assay: Growth inhibition of human IGROV-1 cells at 10 uM incubated for 48 hrs by sulforhodamine B assay relative to control
structure (smiles),measurement,setting,value
O=C(Cn1ccc2ccccc21)Nc1ccc(-c2nc3ccccc3s2)cc1,inhibition of growth at 10 µM,Hs-578T,2.29%
same,inhibition of growth at 10 µM,MDA-MB-435,-3.52%
same,inhibition of growth at 10 µM,UACC-62,5.01%
same,inhibition of growth at 10 µM,HCC 2998,-3.48%
same,inhibition of growth at 10 µM,SR,4.51%
same,inhibition of growth at 10 µM,K562,-3.37%
same,inhibition of growth at 10 µM,SF-295,-3.08%
same,inhibition of growth at 10 µM,SF-539,-2.36%
same,inhibition of growth at 10 µM,UO-31,7.58%
same,inhibition of growth at 10 µM,SK-OV-3,-1.65%
same,inhibition of growth at 10 µM,DU-145,-0.67%
same,inhibition of growth at 10 µM,RXF 393,-12.6%
same,inhibition of growth at 10 µM,BT-549,-5.34%
same,inhibition of growth at 10 µM,U-251,2.41%
same,inhibition of growth at 10 µM,SK-MEL-5,1.44%
same,inhibition of growth at 10 µM,HT-29,-14.7%
same,inhibition of growth at 10 µM,MDA-MB-468,150%
same,inhibition of growth at 10 µM,MCF7,61.8%
same,inhibition of growth at 10 µM,T47D,9.38%
same,inhibition of growth at 10 µM,NCI-H322M,1.19%
same,inhibition of growth at 10 µM,RPMI-8226,0%
same,inhibition of growth at 10 µM,SF-268,3.37%
same,inhibition of growth at 10 µM,PC-3,2.02%
same,inhibition of growth at 10 µM,A549,1.71%
same,inhibition of growth at 10 µM,NCI-H23,5.98%
same,inhibition of growth at 10 µM,HL-60(TB),0.1%
same,inhibition of growth at 10 µM,OVCAR-8,-4.73%
same,inhibition of growth at 10 µM,ACHN,-10.9%
same,inhibition of growth at 10 µM,NCI-H522,-1.58%
same,inhibition of growth at 10 µM,UACC-257,-0.08%
same,inhibition of growth at 10 µM,OVCAR-5,-3.94%
same,inhibition of growth at 10 µM,NCI-H226,-2.24%
same,inhibition of growth at 10 µM,SNB-19,1.41%
same,inhibition of growth at 10 µM,OVCAR-3,-2.19%
same,inhibition of growth at 10 µM,Malme-3M,-8.06%
same,inhibition of growth at 10 µM,786-0,-3.1%
same,inhibition of growth at 10 µM,M14,-8.41%
same,inhibition of growth at 10 µM,SN12C,-1.09%
same,inhibition of growth at 10 µM,TK-10,-3.65%
same,inhibition of growth at 10 µM,MDA-MB-231,-7.77%
same,inhibition of growth at 10 µM,MOLT-4,5.48%
same,inhibition of growth at 10 µM,OVCAR-4,-2.92%
same,inhibition of growth at 10 µM,KM12,-6.39%
same,inhibition of growth at 10 µM,IGROV-1,26.2%
NS(=O)(=O)c1ccc(NCC(=O)Nc2ccc(-c3nc4ccccc4s3)cc2)cc1,inhibition of growth at 10 µM,Hs-578T,1.67%
same,inhibition of growth at 10 µM,MDA-MB-435,23%
same,inhibition of growth at 10 µM,UACC-62,62%
same,inhibition of growth at 10 µM,HCC 2998,12.4%
same,inhibition of growth at 10 µM,SR,84%
same,inhibition of growth at 10 µM,K562,91.6%
same,inhibition of growth at 10 µM,SF-295,1.17%
same,inhibition of growth at 10 µM,SF-539,8.62%
same,inhibition of growth at 10 µM,UO-31,25.6%
same,inhibition of growth at 10 µM,SK-OV-3,-5.77%
same,inhibition of growth at 10 µM,DU-145,53%
same,inhibition of growth at 10 µM,RXF 393,0.08%
same,inhibition of growth at 10 µM,BT-549,85.5%
same,inhibition of growth at 10 µM,U-251,28.7%
same,inhibition of growth at 10 µM,SK-MEL-5,28.7%
same,inhibition of growth at 10 µM,HT-29,25.5%
same,inhibition of growth at 10 µM,MDA-MB-468,95.7%
same,inhibition of growth at 10 µM,MCF7,72.4%
same,inhibition of growth at 10 µM,T47D,53.6%
same,inhibition of growth at 10 µM,NCI-H322M,12%
same,inhibition of growth at 10 µM,RPMI-8226,63.3%
same,inhibition of growth at 10 µM,SF-268,74.9%
same,inhibition of growth at 10 µM,PC-3,35.3%
same,inhibition of growth at 10 µM,A549,7.37%
same,inhibition of growth at 10 µM,NCI-H23,25.3%
same,inhibition of growth at 10 µM,HL-60(TB),66.6%
same,inhibition of growth at 10 µM,OVCAR-8,17.3%
same,inhibition of growth at 10 µM,ACHN,-4.96%
same,inhibition of growth at 10 µM,NCI-H522,164%
same,inhibition of growth at 10 µM,UACC-257,2.83%
same,inhibition of growth at 10 µM,OVCAR-5,-5.64%
same,inhibition of growth at 10 µM,NCI-H226,16.3%
same,inhibition of growth at 10 µM,SNB-19,25.7%
same,inhibition of growth at 10 µM,OVCAR-3,65.7%
same,inhibition of growth at 10 µM,Malme-3M,46.4%
same,inhibition of growth at 10 µM,786-0,87.9%
same,inhibition of growth at 10 µM,M14,54.4%
same,inhibition of growth at 10 µM,SN12C,52.2%
same,inhibition of growth at 10 µM,TK-10,-5.51%
same,inhibition of growth at 10 µM,MDA-MB-231,55%
same,inhibition of growth at 10 µM,MOLT-4,93.8%
same,inhibition of growth at 10 µM,OVCAR-4,32.8%
same,inhibition of growth at 10 µM,KM12,38.4%
same,inhibition of growth at 10 µM,IGROV-1,41%
